The results in this text go back to US20100197591A1, “4-AMINO-7,8-DIHYDROPYRIDO[4,3-d]PYRIMIDIN-5(6H)-ONE DERIVATIVES” (pfizer Inc, priority 2009, published 2010).

In the experiment the target is T1, Human full-length diacylglycerol:acylCoA acyltransferase 1 (DGAT-1) (Homo sapiens, UniProt O75907).
T1 construct: Human full-length diacylglycerol:acylCoA acyltransferase 1 (DGAT-1) was expressed in Sf9 insect cells; made in house; host or cells: Sf9 insect cells (baculovirus); crude membrane/microsome fraction
T1 sequence (O75907 1-488): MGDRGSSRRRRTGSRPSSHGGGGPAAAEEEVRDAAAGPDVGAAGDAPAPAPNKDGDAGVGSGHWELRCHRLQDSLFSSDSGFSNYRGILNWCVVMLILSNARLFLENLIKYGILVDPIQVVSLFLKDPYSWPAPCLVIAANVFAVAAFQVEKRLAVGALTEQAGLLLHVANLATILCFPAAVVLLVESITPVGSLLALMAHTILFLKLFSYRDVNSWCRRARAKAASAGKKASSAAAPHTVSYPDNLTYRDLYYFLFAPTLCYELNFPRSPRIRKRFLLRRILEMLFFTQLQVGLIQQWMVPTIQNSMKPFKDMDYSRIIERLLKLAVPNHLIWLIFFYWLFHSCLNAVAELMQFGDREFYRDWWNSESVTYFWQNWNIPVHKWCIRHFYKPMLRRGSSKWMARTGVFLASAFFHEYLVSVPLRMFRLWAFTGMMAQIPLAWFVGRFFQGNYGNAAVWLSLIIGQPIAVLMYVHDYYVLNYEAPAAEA
Description: DGAT-1 Reduced Microsome Multidose Assay, G7329F Human IC50. The experiment is classed as biochemical. As to conditions: crude membrane fraction of Sf9 cells expressing human DGAT-1; [14C]decanoylCoA; apparent IC50, average where tested more than once. As to the method: Human full-length diacylglycerol:acylCoA acyltransferase 1 (DGAT-1) was expressed in Sf9 insect cells which are then lysed and a crude membrane fraction (105,000×g pellet) was prepared. The DGAT-1 gene is a human DGAT-1 gene described in J Biol Chem 273:26765 (1998) and U.S. Pat. No. 6,100,077.
In vitro inhibition of DGAT-1 was measured using a modification, further described below, of the assay methodology described in U.S. Pat. No. 6,994,956 B2.
The cells were cultured as follows. Sf9 cells (20 L) were infected with 4 mL of DGAT-1 Baculovirus Infected Insect Cells (BIIC) for 72 hours in a Wave Bioreactor System 20/50P (Wave Biotec/GE Healthcare).
Crude DGAT-1 microsomes were prepared as follows. Cell pellets were washed once with ice-cold Dulbecco's phosphate-buffered saline. Cells were collected in tabletop centrifuge (Beckman GS-6KR), 15 minutes, 2000×g, 4° C. Twenty (20) mL of ice-cold Microsome Buffer (MB) was added per 5 g of cell pellet. The suspension was passed through a microfluidizer 3 times (18K psi). The lysate was transferred to centrifuge tubes and centrifuged for 20 minutes at 5000×g (Beckman-Coulter, Inc. Allegra® 64R High-Speed Refrigerated Benchtop Centrifuge, F0650 rotor) at 4° C. The supernatant was transferred to ultracentrifuge tubes and centrifuged at 125,000×g for 1 hour in a Beckman Ti-45 rotor, 4° C. The supernatant fluid was discarded. The pellet was resuspended in 70 mL of MB by sonication. The microsome concentration was determined using Bio-Rad Protein DC Protein Assay. The microsomes were filter sterilized with a 0.22 μm filter. The samples were portioned, flash frozen and stored at −80° C.
The Microsome Buffer, used for microsome preparation, was prepared by conventional means and contained 125 mM sucrose, 3 mM imidazole, 0.2 μg/mL aprotinin, 0.2 μg/mL leupeptin and 5 mM dithiothreitol (Cleland's reagent), DGAT-1 activity was measured in 384-well format in a total assay volume of 25 μl that contained, Hepes buffer (50 mM, pH 7.5), MgCl2 (10 mM), bovine serum albumin (0.6 mg/ml), [^14C]decanoylCoA (20 μM, 58 Ci/mol) and membranes (25 μg/ml) into which 1,2 dioleoyl-sn-glycerol (75 μM) in acetone has already been incorporated. Inhibitors in DMSO were pre-incubated with membranes before initiating the DGAT-1 reaction by the addition of decanoylCoA. […] The DMSO concentration was 2.5%. The inhibitors were present at a range of eight concentrations to generate an apparent IC50 for each compound. The eight inhibitor concentration employed ranged from 10 μM to 3 nM (from high to low concentration). Specifically, the eight concentrations used were 10 μM, 3 μM, 1 μM, 300 nM, 100 nM, 30 nM, 10 nM and 3 nM.
Reaction mixtures were neutralized by the addition of 15 μl of tris(hydroxy-methyl)aminomethane (1M, pH 8.0) and then mixed by trituration with 37.5 μl of Microscint™-E (Perkin Elmer). Plates contents were allowed to partition for 15 to 30 min before ^14C was measured in a scintillation spectrometer (Wallac Microbeta Trilux 1450-030 liquid scintillation counter 12 detector in the top-count DPM mode). Percent inhibition of test compounds was computed as […].
Four separate assays were performed using 4 different methods of analysis. The method of analysis of Assay 1 was the same as Assay 4 (described above) except microsomes were utilized at 25 μg/mL instead of 5 μg/mL. The method of analysis of Assay 2 was the same as Assay 4 (described above) except eleven (11) concentrations of inhibitor were employed instead of eight (8). The method of analysis of Assay 3 was the same as Assay 2 except the compounds were serially diluted in a different laboratory.
Where this DGAT-1 inhibition assay was performed on a compound more than once, an average is provided for that compound.
Turning to `COc1nc(N)c2c(n1)CCN(c1ccc(C(C)(C)c3nc(C)no3)cc1)C2=O` [Example 3F, 4-amino-2-methoxy-6-{4-[1-methyl-1-(3-methyl-1,2,4-oxadiazol-5-yl)ethyl]phenyl}-7,8-dihydropyrido[4,3-d]pyrimidin-5(6H)-one], the IC50 came to 51.5 nM.

Turning to `CNC(=O)C(C)(C)c1ccc(N2CCc3nc(OC)nc(N)c3C2=O)cc1` [Example 3G, 2-[4-(4-amino-2-methoxy-5-oxo-7,8-dihydropyrido[4,3-d]pyrimidin-6(5H)-yl)phenyl]-N,2-dimethylpropanamide], the IC50 is 126 nM. Turning to `COc1nc(N)c2c(n1)CCN(c1ccc(C(C)(C)C(=O)N(C)C)cc1)C2=O` [Example 3H, 2-[4-(4-amino-2-methoxy-5-oxo-7,8-dihydropyrido[4,3-d]pyrimidin-6(5H)-yl)phenyl]-N,N,2-trimethylpropanamide], the IC50 worked out at 260 nM. Next, `COc1nc(N)c2c(n1)CCN(c1ccc(C(C)(C)C(N)=O)cc1)C2=O` [Example 3I, 2-[4-(4-amino-2-methoxy-5-oxo-7,8-dihydropyrido[4,3-d]pyrimidin-6(5H)-yl)phenyl]-2-methylpropanamide]: 52.8 nM. The figure for `COc1nc(N)c2c(n1)CCN(c1ccc(C(C)(C)c3ncnn3C)cc1)C2=O` [Example 3K, 4-amino-2-methoxy-6-{4-[1-methyl-1-(1-methyl-1H-1,2,4-triazol-5-yl)ethyl]phenyl}-7,8-dihydropyrido[4,3-d]pyrimidin-5(6H)-one] is 795 nM. On to `COc1nc(N)c2c(n1)CCN(c1ccc(C(C)(C)c3ncn[nH]3)cc1)C2=O` [Example 3N], for which the half-maximal inhibitory concentration (IC50) was found to be 78.5 nM. The figure for `COc1nc(N)c2c(n1)CCN(c1ccc(C(C)(C)C#N)cc1)C2=O` [Example 3O, 2-[4-(4-amino-2-methoxy-5-oxo-7,8-dihydropyrido[4,3-d]pyrimidin-6(5H)-yl)phenyl]-2-methylpropanenitrile] is 88.3 nM. The figure for `COc1nc(N)c2c(n1)CCN(c1ccc(C(C)(C)c3nnn[nH]3)cc1)C2=O` [Example 3P, 4-amino-2-methoxy-6-{4-[1-methyl-1-(1H-tetrazol-5-yl)ethyl]phenyl}-7,8-dihydropyrido[4,3-d]pyrimidin-5(6H)-one] is 20.9 nM; for `COc1nc(N)c2c(n1)CCN(c1ccc(C(C)(C)CNC(C)=O)cc1)C2=O` [Example 3U, N-{2-[4-(4-amino-2-methoxy-5-oxo-7,8-dihydropyrido[4,3-d]pyrimidin-6(5H)-yl)phenyl]-2-methylpropyl}acetamide] it is 84.3 nM; for `COc1nc(N)c2c(n1)CCN(c1cccc(C(C)C)c1)C2=O` [Example 6B, 4-amino-6-(3-isopropylphenyl)-2-methoxy-7,8-dihydropyrido[4,3-d]pyrimidin-5(6H)-one] it is 873 nM. The figure for `COc1nc(N)c2c(n1)CCN(c1cccc(C(C)(C)C)c1)C2=O` [Example 6C, 4-amino-6-(3-tert-butylphenyl)-2-methoxy-7,8-dihydropyrido[4,3-d]pyrimidin-5(6H)-one] is 37.7 nM; for `CCOc1nc(N)c2c(n1)CCN(c1ccc(C(C)(C)C)cc1)C2=O` [Example 6D, 4-amino-6-(4-tert-butylphenyl)-2-ethoxy-7,8-dihydropyrido[4,3-d]pyrimidin-5(6H)-one] it is 899 nM; for `COc1nc(N)c2c(n1)CCN(c1ccc(C(F)(F)F)cc1)C2=O` [Example 6F, 4-amino-2-methoxy-6-[4-(trifluoromethyl)phenyl]-7,8-dihydropyrido[4,3-d]pyrimidin-5(6H)-one] it is 329 nM.

For `COc1nc(N)c2c(n1)CCN(c1ccc(C(C)C)cc1F)C2=O` [Example 6G, 4-amino-6-(2-fluoro-4-isopropylphenyl)-2-methoxy-7,8-dihydropyrido[4,3-d]pyrimidin-5(6H)-one], the IC50 is 19.8 nM. Next, `COc1nc(N)c2c(n1)CCN(c1ccc(C(C)(C)C)c(F)c1)C2=O` [Example 6H, 4-amino-6-(4-tert-butyl-3-fluorophenyl)-2-methoxy-7,8-dihydropyrido[4,3-d]pyrimidin-5(6H)-one]: 12.6 nM. For the compound `COc1nc(N)c2c(n1)CCN(c1ccc(C(C)(C)C)cc1F)C2=O` [Example 6I, 4-amino-6-(4-tert-butyl-2-fluorophenyl)-2-methoxy-7,8-dihydropyrido[4,3-d]pyrimidin-5(6H)-one], the IC50 worked out at 4.9 nM. As to `COc1nc(N)c2c(n1)CCN(c1ccc3c(c1)N(C)C(=O)C3(C)C)C2=O` [Example 6J, 4-amino-2-methoxy-6-(1,3,3-trimethyl-2-oxo-2,3-dihydro-1H-indol-6-yl)-7,8-dihydropyrido[4,3-d]pyrimidin-5(6H)-one], the IC50 came out at 256 nM. The figure for `COc1nc(N)c2c(n1)CCN(c1ccc(C(C)(C)C(F)(F)F)cc1)C2=O` [Example 6K, 4-amino-2-methoxy-6-[4-(2,2,2-trifluoro-1,1-dimethylethyl)phenyl]-7,8-dihydropyrido[4,3-d]pyrimidin-5(6H)-one] is 32.7 nM. On to `COc1nc(N)c2c(n1)CCN(c1ccc([C@H]3CC[C@H](Cc4nc(C)no4)CC3)c(F)c1)C2=O` [Example 7E, 4-amino-6-(3-fluoro-4-{trans-4-[(3-methyl-1,2,4-oxadiazol-5-yl)methyl]cyclohexyl}phenyl)-2-methoxy-7,8-dihydropyrido[4,3-d]pyrimidin-5(6H)-one], for which the IC50 amounted to 38.7 nM. Consider `COc1nc(N)c2c(n1)CCN(c1ccc(C(C)(C)NC(C)=O)cc1)C2=O` [Example 8A, N-{1-[4-(4-amino-2-methoxy-5-oxo-7,8-dihydropyrido[4,3-d]pyrimidin-6(5H)-yl)phenyl]-1-methylethyl}acetamide], for which the IC50 came out at 1570 nM. With `COc1nc(N)c2c(n1)CCN(c1ccc(Cl)c(Cl)c1)C2=O` [Example 9A, 4-amino-6-(3,4-dichlorophenyl)-2-methoxy-7,8-dihydropyrido[4,3-d]pyrimidin-5(6H)-one], the IC50 worked out at 68.9 nM. Consider `COc1nc(N)c2c(n1)CCN(c1ccc3c(c1)OCCO3)C2=O` [Example 9B, 4-amino-6-(2,3-dihydro-1,4-benzodioxin-6-yl)-2-methoxy-7,8-dihydropyrido[4,3-d]pyrimidin-5(6H)-one], for which the IC50 turned out to be 104 nM.

For `COc1nc(N)c2c(n1)CCN(c1ccccc1)C2=O` [Example 9C, 4-amino-2-methoxy-6-phenyl-7,8-dihydropyrido[4,3-d]pyrimidin-5(6H)-one], the IC50 stood at 594 nM. As to `COc1nc(N)c2c(n1)CCN(c1ccc(Cl)c(F)c1)C2=O` [Example 9D, 4-amino-6-(4-chloro-3-fluorophenyl)-2-methoxy-7,8-dihydropyrido[4,3-d]pyrimidin-5(6H)-one], the IC50 amounted to 101 nM.

As a reminder, the IC50 is the midpoint of a concentration-inhibition curve.
